The text below walks through data of patent publication US8404805B2, “Characterization of GRP94-ligand interactions and purification, screening, and therapeutic methods relating thereto” (Duke University, priority 2000, dated 2013).

Test [1] addresses T1, GRP94 (Sus scrofa, UniProt Q29092). In words: Polarity-sensitive fluorescent probe binding to GRP94 (fluorescence emission). Conditions: for probe interaction with native versus heat shocked GRP94 (emission spectra): 0.5 μM GRP94, 5 μM probe, 30 min at 37° C. Details: GRP94 was purified from porcine pancreas; from tissue; host or cells: porcine pancreas (rough microsomes); species or system porcine.
Procedure: Fluorescent probes were obtained from Molecular Probes (Eugene, Oreg.). […] All other reagents were obtained from Sigma Chemical Co. (St. Louis, Mo.) unless otherwise indicated. […] Fluorophore Binding Reactions. […] For all assays, control reactions at solvent dilutions identical to experimental conditions were performed to correct for any solvent effects. […] Fluorescence Measurements. Emission spectra were obtained in a FLUOROMAXTM spectrofluorometer (SPEX Industries Inc. of Edison, N.J.) operating in photon counting mode. Spectra were recorded and processed with DM3000f operating software, version 2.1 (SPEX Industries Inc. of Edison, N.J.). For emission scans, slit width was set at 1 nm. […] All spectra were background corrected.

Test [2] addresses T1, GRP94. Description: GRP94 autophosphorylation assay. Conditions: 180 μM NECA or radicicol in 3.6% DMSO, 5 μg/ml heparin, 5 mM GTP. Details: GRP94 was purified from porcine pancreas; from tissue; host or cells: porcine pancreas (rough microsomes). The format is biochemical, porcine. On the procedure: (§1) Phosphorylation Assays. […] For the casein kinase assay, 1 unit of casein kinase II was incubated as described above, with the addition of 4:M casein. […] The 25:I reaction mixtures were incubated at 37° C. for 1 hour and quenched by addition of 10% trichloroacetic acid. Samples were analyzed by 10% SDS-PAGE gels and the phosphorylated species were quantitated using a Fuji MACBAS1000™ phosphorimaging system (Fuji Medical Systems of Stamford, Conn.).

Test [3] concerns the target casein kinase II (Homo sapiens, UniProt P68400). In words: Casein kinase assay. The note with it: 180 μM NECA or radicicol in 3.6% DMSO, 5 μg/ml heparin, 5 mM GTP. It counts as biochemical. The method, then: as §1
The target of test [4] is T1, GRP94. In words: [3H]-NECA competitive displacement assay. Conditions: for effect of excess Mg2+ on binding to GRP94: 10 mM Mg(OAc)2 versus nominal magnesium; for competition with [3H]-NECA for binding to GRP94: nominal (80 μM) Mg2+; for relative affinities of binding to GRP94 in excess Mg2+: 10 mM Mg(OAc)2; for relative affinity of GRP94 for the nucleotide: NECA displacement; for binding to GRP94, nucleoside base specificity by [3H]-NECA displacement: competitors at 50 μM.
Procedure: (§3) Where indicated, binding reactions were performed in either buffer C (10 mM Tris, pH 7.5, 50 mM KCl, 5 mM MgCl2, 2 mM DTT, 0.01% NP-40, 20 mM Na2MoO4) or 50 mM Tris, pH 7.5, 10 mM Mg(OAc)2. […] Vacuum filtration was performed with an Amersham Pharmacia Biotech (Piscataway, N.J.) vacuum filtration manifold.

Test [5] relates to Hsp90. In words: [32P]ATP binding assay. The note with it: 50 μM [32P]ATP, 1 hour on ice. Also noted: species or system rat. The method, then: (§2) ATP Binding Assay. Six:g of GRP94, BiP, and Hsp90 was incubated with 50:M (-[^32P] ATP (1000 ΦCi/Φmol) (Amersham Pharmacia Biotech of Piscataway, N.J.) in buffer B on ice for 1 hour. Nitrocellulose filters (BA85) (Schleicher & Schuell of Keene, N.H.) were individually wet in buffer B before use, and bound versus free [^32P]-ATP was separated by vacuum filtration. Filters were washed with 3×2 mL of ice cold buffer B, placed in 5 mL of scintillation fluid, vortexed, and counted.

Test [6] has as its target T1, GRP94. Description: Tryptophan fluorescence of GRP94 (tertiary conformational state). The format is biochemical, porcine. Also noted: GRP94 was purified from porcine pancreas; from tissue; host or cells: porcine pancreas (rough microsomes). The note with it: 50 μM NECA, 50 μM geldanamycin, 2.5 mM ATP or 2.5 mM ADP, 1 hour at 37° C., excitation 295 nm.
Procedure: Tryptophan Fluorescence. Tryptophan fluorescence measurements were conducted in a FLUOROMAX™ spectrofluorometer (Spex Industries, Inc. of Edison, N.J.) with the slit widths set to 1 nm for both excitation and emission. […] All spectra were corrected by subtraction of buffer or buffer plus ligand samples. […] Samples were then cooled to room temperature, transferred to a quartz cuvette, and the spectra collected.
For test [7], the target named is T1, GRP94. In words: [32P]ATP binding assay. Also noted: GRP94 was purified from porcine pancreas; from tissue; host or cells: porcine pancreas (rough microsomes); species or system porcine. Conditions: 50 μM [32P]ATP, 1 hour on ice. On the procedure:
as §2

The test system of test [8] is BiP. In words: [32P]ATP binding assay. Conditions: 50 μM [32P]ATP, 1 hour on ice. Details: species or system porcine. On the procedure: as §2
In test [9] the target is T1, GRP94. Description: ATPase assay (HPLC). The format is biochemical, porcine. Details: GRP94 was purified from porcine pancreas; from tissue; host or cells: porcine pancreas (rough microsomes). On the procedure:
Samples were then spun through a CENTRICON®-30 (Amicon of Beverly, Mass.) at 10,000 rpm, 4° C. to separate protein from nucleotide. A final concentration of 50 mM (NH4)2HPO4, pH 7.0, and 4:M AMP, pH 7.0, was added to dilutions of the above samples and centrifuged at 15,200 rpm for 5 minutes at 4° C. 100:L of supernatant was then fractionated on a […] column (Alltech of Deerfield, Ill.), using a Series 1050 Hewlett Packard HPLC system. Elution of nucleotides was performed by step gradient elution using a mobile phase of 150 mM (NH4)2HPO4, pH 5.2, at 1.2 ml/min for the first ten minutes, followed by 300 mM (NH4)2HPO4, pH 5.2, at a flow rate of 2 ml/min for the remainder of the elution. In this protocol, ADP and ATP were well resolved, with ADP eluting at 7 minutes and ATP at 12 minutes. Peak height values were used in calculations of percent hydrolysis and ADP formation. Spontaneous hydrolysis was determined for each ATP concentration in paired incubations lacking GRP94. The AMP was used as an internal reference standard to control for equivalent sample loading.

Test [10] deals with T1, GRP94. In words: Isothermal titration calorimetry. It counts as binding, porcine. Details: GRP94 was purified from porcine pancreas; from tissue; host or cells: porcine pancreas (rough microsomes). Conditions: 5 μM GRP94, 152 μM NECA stock, 25° C. Background: Isothermal titration calorimetry measures the heat released or taken up as one component is titrated into another.
Procedure: Isothermal calorimetry experiments were performed at 25° C. using a MSC calorimeter (MicroCal Inc. of Northampton, Mass.). […] Necessary corrections were made by subtracting the heats of dilution resulting from buffer addition to protein solution and ligand solution into buffer.
Test [11] has as its target T1, GRP94. In words: [3H]-NECA binding assay (vacuum filtration).
Procedure: as §3
In test [12] the test system is BiP. In words: [3H]-NECA binding assay (vacuum filtration). The note with it: 20 nM [3H]-NECA, 60 min on ice.
Procedure: as §3
The target in test [13] is HSP90 (Saccharomyces cerevisiae, UniProt P02829). Conditions: Roe et al. (1999); cited from earlier work.
Sequence of HSP90 (Saccharomyces cerevisiae, UniProt P02829) (P02829 whole entry): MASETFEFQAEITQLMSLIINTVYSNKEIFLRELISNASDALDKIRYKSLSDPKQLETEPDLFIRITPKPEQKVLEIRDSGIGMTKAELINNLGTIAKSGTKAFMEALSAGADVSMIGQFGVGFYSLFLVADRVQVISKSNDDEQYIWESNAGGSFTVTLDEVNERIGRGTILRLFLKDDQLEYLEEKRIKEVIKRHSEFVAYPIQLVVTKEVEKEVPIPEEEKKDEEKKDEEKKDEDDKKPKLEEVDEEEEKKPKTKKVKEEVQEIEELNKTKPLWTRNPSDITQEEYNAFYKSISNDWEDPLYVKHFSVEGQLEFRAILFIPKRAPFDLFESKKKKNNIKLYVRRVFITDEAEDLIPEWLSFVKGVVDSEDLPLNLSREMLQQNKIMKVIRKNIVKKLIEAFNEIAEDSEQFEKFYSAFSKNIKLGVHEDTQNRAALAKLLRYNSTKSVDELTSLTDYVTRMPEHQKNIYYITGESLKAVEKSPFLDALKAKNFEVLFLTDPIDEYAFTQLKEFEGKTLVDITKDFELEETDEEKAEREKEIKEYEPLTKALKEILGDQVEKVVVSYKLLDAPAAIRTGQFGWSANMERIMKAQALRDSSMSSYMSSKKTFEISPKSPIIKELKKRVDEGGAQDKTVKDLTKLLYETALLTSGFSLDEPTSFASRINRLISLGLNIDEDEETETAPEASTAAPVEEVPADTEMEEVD
In test [14] the test system is HSP90. Conditions: Prodromou et al. (1997); cited from earlier work.

Sequence of casein kinase II (P68400 whole entry): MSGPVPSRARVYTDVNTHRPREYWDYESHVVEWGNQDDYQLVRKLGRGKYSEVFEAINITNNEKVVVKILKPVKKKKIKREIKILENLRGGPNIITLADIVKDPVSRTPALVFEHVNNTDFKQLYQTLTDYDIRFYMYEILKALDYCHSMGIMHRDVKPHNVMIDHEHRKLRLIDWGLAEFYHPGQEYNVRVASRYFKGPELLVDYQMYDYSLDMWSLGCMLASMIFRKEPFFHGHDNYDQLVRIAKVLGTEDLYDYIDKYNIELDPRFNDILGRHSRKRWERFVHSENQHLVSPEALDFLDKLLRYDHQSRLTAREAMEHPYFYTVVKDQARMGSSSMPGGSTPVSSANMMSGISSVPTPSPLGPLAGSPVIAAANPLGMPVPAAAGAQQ
Sequence of casein kinase II (P67870 whole entry partner): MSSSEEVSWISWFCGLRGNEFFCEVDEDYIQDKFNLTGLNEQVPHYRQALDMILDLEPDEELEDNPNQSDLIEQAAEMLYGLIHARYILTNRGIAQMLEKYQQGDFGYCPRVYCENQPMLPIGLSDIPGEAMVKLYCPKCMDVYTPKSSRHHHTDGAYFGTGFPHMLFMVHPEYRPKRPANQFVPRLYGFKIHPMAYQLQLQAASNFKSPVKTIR
T1 sequence (Q29092 22-804): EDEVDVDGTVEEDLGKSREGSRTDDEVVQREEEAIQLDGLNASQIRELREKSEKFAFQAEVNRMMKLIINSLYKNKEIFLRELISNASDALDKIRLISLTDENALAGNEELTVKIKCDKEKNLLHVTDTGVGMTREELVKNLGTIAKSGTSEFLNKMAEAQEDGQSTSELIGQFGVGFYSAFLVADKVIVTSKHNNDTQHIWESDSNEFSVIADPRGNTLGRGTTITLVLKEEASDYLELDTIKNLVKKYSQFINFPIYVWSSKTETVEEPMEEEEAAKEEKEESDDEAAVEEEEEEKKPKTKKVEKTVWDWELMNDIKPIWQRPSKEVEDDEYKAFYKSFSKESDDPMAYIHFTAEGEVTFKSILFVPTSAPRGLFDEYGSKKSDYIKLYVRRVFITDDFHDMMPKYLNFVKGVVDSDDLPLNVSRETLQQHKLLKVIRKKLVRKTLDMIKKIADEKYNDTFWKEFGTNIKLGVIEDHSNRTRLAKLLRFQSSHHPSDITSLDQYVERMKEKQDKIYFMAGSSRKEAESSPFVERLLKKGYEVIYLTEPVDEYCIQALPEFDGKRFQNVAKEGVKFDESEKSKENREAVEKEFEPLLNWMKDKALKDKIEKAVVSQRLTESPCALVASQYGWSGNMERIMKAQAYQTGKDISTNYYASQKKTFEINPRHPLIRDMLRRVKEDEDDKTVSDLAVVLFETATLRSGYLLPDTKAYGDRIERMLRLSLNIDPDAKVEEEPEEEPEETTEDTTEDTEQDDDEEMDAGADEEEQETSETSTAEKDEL

Take `CCC(=O)c1ccc2cc(N(C)C)ccc2c1` [Prodan, 6-propionyl-2-(dimethylamino)naphthalene]: the “probe interaction with native versus heat shocked GRP94 (emission spectra)” value in [1] is reported as “does not interact with the hydrophobic binding pocket(s) displayed by heat shocked GRP94”.

Consider heparin, for which the “effect on GRP94 autophosphorylation (GRP94-derived kinase) activity” value (from here on “effect on GRP94 autophosphorylation”) in test [2] was “markedly attenuated”. Also, the “effect on casein kinase II activity” value in test [3] is “markedly attenuated”.

For `O=S(=O)(O)c1cccc2cccc(Nc3ccccc3)c12` [8-ANS, 1,8-anilinonaphthalenesulfonate], in test [1], the “agonist activity for GRP94 activation” value is “lacks agonist activity” and the “probe interaction with native versus heat shocked GRP94 (emission spectra)” value is “displays weak interactions with native GRP94, yet binds avidly following heat shock”.

Turning to `Nc1ncnc2c1ncn2[C@@H]1O[C@H](CO)[C@@H](O)[C@H]1O` [adenosine], the “relative displacement activity of [3H]-NECA” value in test [4] (20 nM [3H]-NECA) is given as “approximating that observed for ADP”. In addition, the “effect of excess Mg2+ on binding to GRP94” value (“effect of excess Mg2+” below) in [4] is “without effect”.

With `Nc1ncnc2c1ncn2[C@@H]1O[C@H](COP(=O)(O)OP(=O)(O)OP(=O)(O)O)[C@@H](O)[C@H]1O` [ATP], the ATP binding entry in [5] is on record as “no ATP binding was observed”. In addition, the “change of GRP94 tryptophan fluorescence” value in test [6] is reported as “decreased”. In addition, in test [7], the ATP binding entry is reported as “no ATP binding was observed”. In [4] (20 nM [3H]-NECA), the “molar excess required for 50% inhibition of [3H]-NECA binding” value is listed as ~1000 -fold molar excess; the “competition with [3H]-NECA for binding to GRP94” value (shortened to “competition with [3H]-NECA”) is on record as “effectively competed”; the “binding to GRP94, nucleoside base specificity by [3H]-NECA displacement” value (“binding to GRP94 … [3H]-NECA displacement” for short) is listed as “could bind”. Also, in [4], the “relative affinities of binding to GRP94 in excess Mg2+” value is given as “nearly identical relative affinities”, the “effect of excess Mg2+” value is “markedly stimulated” and the “relative affinity of GRP94 for the nucleotide” value (from here on “relative affinity of GRP94”) was “quite low”. Besides, the “efficacy of competing NECA binding, ATP relative to ADP” value in test [4] (nominal Mg2+) is “eight”. Also, in [8], the ATP binding result was “displayed the expected ATP binding activity”.

As for `Nc1nc2c(ncn2[C@@H]2O[C@H](COP(=O)(O)OP(=O)(O)OP(=O)(O)O)[C@@H](O)[C@H]2O)c(=O)[nH]1` [GTP], in [2], the “effect on GRP94 autophosphorylation” value is “markedly attenuated”. For the same molecule, the “binding to GRP94 … [3H]-NECA displacement” value in test [4] (20 nM [3H]-NECA) is “little to no binding”. Also, the “effect on casein kinase II activity” value in test [3] is reported as “markedly attenuated”.

As for `Nc1ccn([C@@H]2O[C@H](COP(=O)(O)OP(=O)(O)OP(=O)(O)O)[C@@H](O)[C@H]2O)c(=O)n1` [CTP], in test [4] (20 nM [3H]-NECA), the “binding to GRP94 … [3H]-NECA displacement” value is on record as “little to no binding”.

As to `CCNC(=O)[C@H]1O[C@@H](n2cnc3c(N)ncnc32)[C@H](O)[C@@H]1O` [NECA, N-ethylcarboxamidoadenosine], in [6], the “change of GRP94 tryptophan fluorescence” value was “increased the tryptophan fluorescence”. Also, the “effect on GRP94 ATPase activity” value in test [9] is on record as “sensitive to inhibition by NECA”. The “effect on GRP94 autophosphorylation” value in test [2] was “neither NECA nor radicicol, both of which bind to the N-terminal nucleotide binding domain of GRP94, significantly inhibit GRP94 derived or casein kinase II activity below the solvent background”. Besides, in [4], the “effect of excess Mg2+” value is recorded as “without effect”. Further, in test [3], the “effect on casein kinase II activity” value is listed as “neither NECA nor radicicol, both of which bind to the N-terminal nucleotide binding domain of GRP94, significantly inhibit GRP94 derived or casein kinase II activity below the solvent background”. In addition, the “binding stoichiometry by isothermal titration calorimetry” value in test [10] is listed as 1.1 mol NECA/mol GRP94 dimer. The “slope of Hill plot” value in test [11] was found to be 1.2. Besides, the “[3H]-NECA binding activity” value was “readily detectable” in test [11] (20 nM [3H]-NECA, 60 min on ice) and “not observed” in test [12]. Moreover, the binding stoichiometry in test [11] (radioligand, vacuum filtration) is 0.5 mol [^3H]-NECA/mol GRP94 monomer.

Turning to `O=c1ccn([C@@H]2O[C@H](COP(=O)(O)OP(=O)(O)OP(=O)(O)O)[C@@H](O)[C@H]2O)c(=O)[nH]1` [UTP], in test [4] (20 nM [3H]-NECA), the “binding to GRP94 … [3H]-NECA displacement” value is “little to no binding”.

`C[C@@H]1C[C@H]2O[C@@H]2/C=C\C=C\C(=O)Cc2c(Cl)c(O)cc(O)c2C(=O)O1` [radicicol]: the “effect on casein kinase II activity” value in [3] is “neither NECA nor radicicol, both of which bind to the N-terminal nucleotide binding domain of GRP94, significantly inhibit GRP94 derived or casein kinase II activity below the solvent background”. In test [13], the expected binding stoichiometry is given as 2 mol radicicol/mol Hsp90 dimer.

Take `Nc1ncnc2c1ncn2[C@@H]1O[C@H](COP(=O)(O)OP(=O)(O)O)[C@@H](O)[C@H]1O` [ADP]: the “change of GRP94 tryptophan fluorescence” value in [6] is listed as “decreased”. In test [4] (20 nM [3H]-NECA), the “competition with [3H]-NECA” value was “effectively competed”. For the same molecule, in [4], the “relative affinities of binding to GRP94 in excess Mg2+” value is listed as “nearly identical relative affinities”, the “effect of excess Mg2+” value is “markedly stimulated” and the “relative affinity of GRP94” value is recorded as “quite low”. Besides, the “affinity of N-terminal domain of Hsp90 for ADP relative to ATP” value in [14] is listed as “four”.

Regarding `Nc1ncnc2c1ncn2[C@@H]1O[C@H](COP(=O)(O)O)[C@@H](O)[C@H]1O` [AMP], the “competition with [3H]-NECA” value in test [4] (20 nM [3H]-NECA) is “effectively competed”. For the same molecule, in test [4], the “effect of excess Mg2+” value was “markedly stimulated” and the “relative affinity of GRP94” value was “quite low”.

As to `Nc1ncnc2c1ncn2[C@H]1C[C@H](O)[C@@H](COP(=O)(O)OP(=O)(O)OP(=O)(O)O)O1` [deoxyATP], in test [4] (20 nM [3H]-NECA), the “binding to GRP94 … [3H]-NECA displacement” value is “could bind”.
